Measurements reported in BindingDB's records for doi:10.1080/14756360802608351 (Ataturk University, 2009).

target: Serum paraoxonase/arylesterase 1 (Homo sapiens, UniProt P27169); test: Paraoxonase Activity Assay; settings: pH 10.5; 25 °C
From the text: The enzyme assay was based on the estimation of p-nitrophenol at 412nm. The molar extinction coefficient of p-nitrophenol was used to calculate enzyme activity.

Sequence of Serum paraoxonase/arylesterase 1 (P27169 whole entry): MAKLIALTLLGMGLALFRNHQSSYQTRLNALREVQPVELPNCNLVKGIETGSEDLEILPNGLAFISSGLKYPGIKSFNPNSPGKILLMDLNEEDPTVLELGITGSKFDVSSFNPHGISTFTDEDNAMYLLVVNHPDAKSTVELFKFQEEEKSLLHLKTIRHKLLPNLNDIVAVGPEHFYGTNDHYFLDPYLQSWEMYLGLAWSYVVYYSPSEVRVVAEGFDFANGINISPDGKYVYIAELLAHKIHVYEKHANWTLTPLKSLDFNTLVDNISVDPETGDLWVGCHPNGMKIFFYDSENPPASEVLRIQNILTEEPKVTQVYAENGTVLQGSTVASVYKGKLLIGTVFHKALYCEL

IC50	Ki	Structure (SMILES)
195 µM	97 µM	COc1ccc2c(c1)c(CC(=O)O)c(C)n2C(=O)c1ccc(Cl)cc1 [indometacin]
340 µM	306 µM	CN1C(C(=O)Nc2ccccn2)=C(O)c2sccc2S1(=O)=O [Tenoxicam]

Second part, the compound before the results:

Structure (SMILES)	IC50	Ki
CN1C(C(=O)Nc2ccccn2)=C(O)c2sc(Cl)cc2S1(=O)=O [Lornoxicam]	136 µM	9 µM
CCCC1CC(C(=O)NC(C(C)O)C2OC(SC)C(O)C(O)C2O)N(C)C1 (stereo not given) [Lincomycine]	9640 µM	11100 µM
CC(C(=O)O)c1cccc(C(=O)c2ccccc2)c1 (stereo not given) [2-(3-benzoylphenyl)propanoic acid]	6230 µM	13000 µM
